Experimental data as given in US20030108610A1, “Methods and compositions for the delivery of pharmaceutical agents and/or the prevention of adhesions” (priority 1996, published 2003).

Tests used:
[1] = Drug solubilization in poloxamer 407-water systems, apparent distribution coefficient micellar/aqueous phase; format: physicochemical
Description: The next day the sample was warmed momentarily to 40° C. to hasten solubilization. This process was repeated two or three times to ensure saturation. […] Prior to analysis, the samples were filtered through a 0.2 μm nylon filter syringe to remove unsolubilized drug. Samples were assayed for solubilized drug concentrations by absorbance spectroscopy (see below).
Drug Concentration Determinations. The samples were diluted to a suitable concentration with ethanol (for water insoluble drugs) or DI water. Drug concentrations were measured at the appropriate wavelength for each drug (see Table I) using a UV/Vis spectrophotometer (Beckman model DU-65). Concentrations were determined using Beer's law from the appropriate calibration curve (Table II). Gentamicin sulfate determination was performed by the UCSD Medical Center laboratory.
Where S and So are the concentration of solubilized drug in the presence and absence of poloxamer, respectively.

[2] = In-vitro release rate of drugs in poloxamer gels; format: physicochemical; details: within the same poloxamer formulations
Description: In-vitro release rate of drugs in poloxamer gels. The in-vitro release rates of drugs in poloxamer-based gels were determined using a modified USP dissolution apparatus (Hanson Research model SR6) equipped with enhancer cells. […] Membranes (1.2 μm cellulose ester membranes, 25 mm diameter, type RAWP) were presoaked in phosphate buffer and placed on the cell. Approximately 0.6 mL of sample in the fluid sol phase was then loaded into each of the enhancer cells. The cells were subsequently closed and the gel phase was allowed to form at room temperature prior to introduction into the dissolution vessels. The dissolution paddles were rotated at a speed of 100 rpm (approximating the hydrodynamic stress found at the peritoneal cavity) and were positioned approximately 1 cm from the top of the cells for all experiments. The in-vitro release of drug from the gels was monitored over a period of 4 hr. One mL samples were collected every 0.5 hr. The vessel was refilled with fresh buffer every time a sample aliquot was removed, and each sample was run in duplicate.

[3] = 20% w/w poloxamer 407F
Description: Hydrophilic co-surfactants in the form of fatty acid soaps (i.e. sodium oleate, sodium laurate, sodium caprate, and sodium caprylate) were obtained from Nu-Chek Prep. (Elysian, Minn.).
For phase behavior studies, samples were loaded into 5 ml Wheaton vacuoles (Fisher Scientific, Pittsburgh, Pa.), and flame-sealed. The vacuoles were then immersed in a constant temperature bath. For temperatures less than 60° C., phase behavior was determined in a water bath (Koehler, Bohemia, N.Y.). At higher temperatures an oil bath (Haake, model DC3, Germany) was utilized. Temperature was raised in two degree increments from ca. 1° C. to 120° C. Samples were allowed to equilibrate for at least 1 hour at constant temperature prior to examination. Since the cubic liquid crystalline phase is isotropic (i.e. not birefringent), the determination of the gel boundary is somewhat subjective. Once equilibrium was reached, the vials were simply inverted and gravity was allowed to determine if the sample was in the sol or gel state.

Cc1ccc(C(=O)c2ccc(CC(=O)O)n2C)cc1 [sodium tolmetin, Tolmetin Sodium]
partitioning between poloxamer micelle and bulk aqueous phase [1]: partitions almost entirely into the bulk aqueous phase
differences in diffusion coefficients or mean dissolution times (MDT) between drugs [2]: no differences were observed

CCCCCCCCCC(=O)[O-].[Na+] [sodium caprate]
soap concentration required to melt / completely suppress the 20% poloxamer 407F gel [3]: > 5%

CCCCCCCC(=O)[O-].[Na+] [8:0 soap, sodium caprylate]
soap concentration required to melt / completely suppress the 20% poloxamer 407F gel [3]: ~11.5%

CCCCCCCCCCCC(=O)[O-].[Na+] [12:0 soap, sodium laurate]
soap concentration required to melt / completely suppress the 20% poloxamer 407F gel [3]: 2.5%
